The record followed here is patent US12281057B2 (VERTEX PHARMACEUTICALS INCORPORATED, priority 2017, dated 2025).

truncated form of human NaV 1.8 with full channel activity, sequence (Q9Y5Y9 126-1722 limits assumed): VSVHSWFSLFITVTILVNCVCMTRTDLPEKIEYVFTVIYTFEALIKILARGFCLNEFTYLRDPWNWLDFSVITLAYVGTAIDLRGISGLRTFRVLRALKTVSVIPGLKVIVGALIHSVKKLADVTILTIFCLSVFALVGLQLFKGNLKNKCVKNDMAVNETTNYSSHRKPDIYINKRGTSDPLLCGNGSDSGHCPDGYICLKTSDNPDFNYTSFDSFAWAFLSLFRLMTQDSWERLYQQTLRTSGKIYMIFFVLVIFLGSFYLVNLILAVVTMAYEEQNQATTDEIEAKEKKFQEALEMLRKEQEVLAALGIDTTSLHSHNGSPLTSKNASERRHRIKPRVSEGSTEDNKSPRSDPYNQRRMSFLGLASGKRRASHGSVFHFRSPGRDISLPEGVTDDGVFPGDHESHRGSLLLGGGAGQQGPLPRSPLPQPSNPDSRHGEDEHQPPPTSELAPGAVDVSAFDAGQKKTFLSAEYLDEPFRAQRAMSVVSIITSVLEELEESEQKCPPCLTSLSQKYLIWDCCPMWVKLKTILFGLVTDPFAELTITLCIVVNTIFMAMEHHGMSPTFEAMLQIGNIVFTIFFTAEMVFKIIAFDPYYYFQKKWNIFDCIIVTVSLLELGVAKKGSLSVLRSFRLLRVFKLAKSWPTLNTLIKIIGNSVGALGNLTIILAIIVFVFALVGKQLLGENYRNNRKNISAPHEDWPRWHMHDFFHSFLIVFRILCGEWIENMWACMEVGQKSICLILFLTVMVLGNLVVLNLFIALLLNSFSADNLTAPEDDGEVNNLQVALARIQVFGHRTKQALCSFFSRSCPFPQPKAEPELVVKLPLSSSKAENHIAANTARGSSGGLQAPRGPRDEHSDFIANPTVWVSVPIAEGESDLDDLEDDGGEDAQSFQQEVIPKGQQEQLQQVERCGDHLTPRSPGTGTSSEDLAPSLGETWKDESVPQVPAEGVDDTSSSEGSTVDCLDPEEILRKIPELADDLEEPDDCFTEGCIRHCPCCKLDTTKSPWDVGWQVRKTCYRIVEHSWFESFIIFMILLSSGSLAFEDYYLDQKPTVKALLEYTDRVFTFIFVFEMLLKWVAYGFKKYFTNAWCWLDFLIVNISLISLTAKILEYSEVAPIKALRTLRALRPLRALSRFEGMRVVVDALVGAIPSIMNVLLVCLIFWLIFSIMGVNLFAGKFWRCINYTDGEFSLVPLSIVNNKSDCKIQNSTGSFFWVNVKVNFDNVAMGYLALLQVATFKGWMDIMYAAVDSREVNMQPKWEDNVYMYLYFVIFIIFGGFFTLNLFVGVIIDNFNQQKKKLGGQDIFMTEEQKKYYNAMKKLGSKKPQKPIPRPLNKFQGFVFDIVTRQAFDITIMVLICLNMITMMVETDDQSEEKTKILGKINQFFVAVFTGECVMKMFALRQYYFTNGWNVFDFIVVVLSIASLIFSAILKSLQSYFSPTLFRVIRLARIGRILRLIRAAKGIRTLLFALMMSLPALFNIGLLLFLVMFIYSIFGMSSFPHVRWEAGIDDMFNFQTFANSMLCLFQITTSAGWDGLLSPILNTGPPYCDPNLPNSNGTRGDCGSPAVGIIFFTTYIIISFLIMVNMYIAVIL

The first assay deals with truncated form of human NaV 1.8 with full channel activity (Homo sapiens, UniProt Q9Y5Y9). Briefly: E-VIPR Assay Method A for detecting and measuring Nav inhibition (HEK cells, membrane potential FRET dyes, electrical stimulation). Format: cell-based. To be noted: HEK cells expressing human NaV 1.8, HS (human serum) in compound loading buffer, 11 point dose response, top dose 3 μM, Table 20, read-out: Nav 1.8 MedChem Optical Assay EVIPR Assay Method A HS IC50. The method, boiled down:
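HEK cells expressing truncated human NaV1.8, loaded with CC2-DMPE/DiSBAC6(3) FRET dyes, incubated 30 min at room temp with compound (0.625% DMSO), then electrically stimulated (1.25 A biphasic, 10 Hz, 10 s). Inhibition from 460/580 nm ratio Rf/Ri, normalised to positive and DMSO controls.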
What is called IC50 is the concentration at which inhibition is half-maximal. As for `[2H]C([2H])([2H])Oc1cc(OC(F)(F)F)ccc1Oc1ccc(OC(F)(F)F)c(F)c1C(=O)Nc1ccc(F)c(C(N)=O)c1` [Compound 3, N-(3-carbamoyl-4-fluoro-phenyl)-2-fluoro-6-[2-(trideuteriomethoxy)-4-(trifluoromethoxy)phenoxy]-3-(trifluoromethoxy)benzamide], the IC50 stood at 0.001 µM.
Take `[2H]C([2H])([2H])Oc1cc(OC(F)(F)F)ccc1Oc1ccc(C(F)(F)F)c(F)c1C(=O)Nc1ccc(C(N)=O)nc1` [Compound 24, 5-[[2-fluoro-6-[2-(trideuteriomethoxy)-4-(trifluoromethoxy)phenoxy]-3-(trifluoromethyl)benzoyl]amino]pyridine-2-carboxamide]: the IC50 was 0.018 µM.

Still in this assay, the particulars now being: HEK cells expressing human NaV 1.8, HS (human serum) in compound loading buffer, 11 point dose response, top dose 3 μM, Table 20A, read-out: Nav 1.8 MedChem Optical Assay EVIPR Assay Method A HS IC50.
Turning to `COc1cc(OC(F)(F)F)ccc1Oc1cc([C@H]2C[C@@H]2C)ncc1C(=O)Nc1ccc(F)c(C(N)=O)c1` (single isomer, unassigned) [Compound 113], the IC50 is 0.084 µM.
Still for that read-out and setting: the result for `NC(=O)c1cc(NC(=O)c2c(Cl)cc(Cl)cc2Oc2ccc(F)cc2)ccn1` [Compound 177, 4-[[2,4-Dichloro-6-(4-fluorophenoxy)benzoyl]amino]pyridine-2-carboxamide] reads 0.46 µM.
Turning to `COc1cc(OC(F)(F)F)ccc1Oc1cc(C2CC2(F)F)ncc1C(=O)Nc1ccnc(C(N)=O)c1` (stereo not drawn) [Compound 107, N-(2-Carbamoyl-4-pyridyl)-6-(2,2-difluorocyclopropyl)-4-[2-methoxy-4-(trifluoromethoxy)phenoxy]pyridine-3-carboxamide], the IC50 amounted to 0.123 µM.
For `NC(=O)c1cc(NC(=O)c2c(Oc3ccc(OC(F)(F)F)cc3)cc(C(F)(F)F)cc2C(F)(F)F)ccn1` [Compound 160, 4-[[2-[4-(Trifluoromethoxy)phenoxy]-4,6-bis(trifluoromethyl)benzoyl]amino]pyridine-2-carboxamide], the IC50 stood at 0.41 µM.
Still for that read-out and setting: the result for `COc1cc(OC(F)(F)F)ccc1Oc1cc(C(F)(F)F)cc(F)c1C(=O)Nc1cc(C(N)=O)ncc1C` [Compound 153, 4-[[2-Fluoro-6-[2-methoxy-4-(trifluoromethoxy)phenoxy]-4-(trifluoromethyl)benzoyl]amino]-5-methyl-pyridine-2-carboxamide] reads 0.022 µM; that for `[2H]C([2H])([2H])Oc1c(Oc2ccc(Cl)c(F)c2C(=O)Nc2cc(C(N)=O)ncc2C)ccc(OC(F)(F)F)c1F` [Compound 240, 4-[[3-chloro-2-fluoro-6-[3-fluoro-2-(trideuteriomethoxy)-4-(trifluoromethoxy)phenoxy]benzoyl]amino]-5-methyl-pyridine-2-carboxamide], 0.011 µM.
Turning to `COc1ccc(Oc2cccc(C(F)(F)F)c2C(=O)Nc2ccc(F)c(C(N)=O)c2)c(OC)c1` [Compound 38, N-(3-Carbamoyl-4-fluoro-phenyl)-2-(2,4-dimethoxyphenoxy)-6-(trifluoromethyl)benzamide], the IC50 was 0.7 µM.
Turning to `Cc1cnc(C(N)=O)cc1NC(=O)c1c(Oc2ccc(OC(F)(F)F)cc2)ccc(Cl)c1F` [Compound 244, 4-[[3-chloro-2-fluoro-6-[4-(trifluoromethoxy)phenoxy]benzoyl]amino]-5-methyl-pyridine-2-carboxamide], the IC50 amounted to 0.073 µM.
As for `NC(=O)c1cc(NC(=O)c2c(Oc3ccc(F)cc3)ccc(C(F)(F)F)c2F)ccn1` [Compound 50, 4-[[2-fluoro-6-(4-fluorophenoxy)-3-(trifluoromethyl)benzoyl]amino]pyridine-2-carboxamide], the IC50 worked out at 0.051 µM.
Regarding `Cc1cc(F)ccc1Oc1cccc(C(F)(F)F)c1C(=O)Nc1ccc(F)c(C(N)=O)c1` [Compound 41, N-(3-Carbamoyl-4-fluoro-phenyl)-2-(4-fluoro-2-methyl-phenoxy)-6-(trifluoromethyl)benzamide], the IC50 came out at 0.56 µM.
In the case of `NC(=O)c1ccc(NC(=O)c2c(Oc3ccc(OC(F)(F)F)cc3)ccc(C(F)(F)F)c2F)cn1` [Compound 60, 5-[[2-fluoro-6-[4-(trifluoromethoxy)phenoxy]-3-(trifluoromethyl)benzoyl]amino]pyridine-2-carboxamide], the IC50 came to 0.185 µM.
For `NC(=O)c1cccc(NC(=O)c2c(Oc3ccc(OC(F)(F)F)cc3)ccc(C(F)(F)F)c2F)c1` [Compound 47, N-(3-carbamoylphenyl)-2-fluoro-6-[4-(trifluoromethoxy)phenoxy]-3-(trifluoromethyl)benzamide], the IC50 turned out to be 0.022 µM.
`NC(=O)c1ccc(NC(=O)c2c(Cl)cc(Cl)cc2Oc2ccc(OC(F)(F)F)cc2)cn1` [Compound 184, 5-[[2,4-Dichloro-6-[4-(trifluoromethoxy)phenoxy]benzoyl]amino]pyridine-2-carboxamide]: the IC50 was 0.5 µM.
Take `CNC(=O)c1cccc(NC(=O)c2c(Oc3ccc(OC(F)(F)F)cc3OC)ccc(C(F)(F)F)c2F)c1` [Compound 98, 2-fluoro-6-[2-methoxy-4-(trifluoromethoxy)phenoxy]-N-[3-(methylcarbamoyl)phenyl]-3-(trifluoromethyl)benzamide]: the IC50 came out at 0.015 µM.
As to `COc1cc(OC(F)(F)F)ccc1Oc1cc([C@@H]2C[C@H]2C)ncc1C(=O)Nc1ccnc(C(N)=O)c1` (single isomer, unassigned) [Compound 112], the IC50 amounted to 0.043 µM.
As for `COc1cc(OC(F)(F)F)ccc1Oc1cc(Cl)cc(F)c1C(=O)Nc1ccnc(C(N)=O)c1` [Compound 170, 4-[[4-Chloro-2-fluoro-6-[2-methoxy-4-(trifluoromethoxy)phenoxy]benzoyl]amino]pyridine-2-carboxamide], the IC50 was determined as 0.014 µM.
`COc1cc(OC(F)(F)F)ccc1Oc1cc(C2C[C@@H]2C)ncc1C(=O)Nc1ccc(F)c(C(N)=O)c1` (mixture of isomers) [Compound 106, Racemic trans-N-(3-Carbamoyl-4-fluoro-phenyl)-4-[2-methoxy-4-(trifluoromethoxy)phenoxy]-6-(2-methylcyclopropyl)pyridine-3-carboxamide]: the IC50 came out at 0.015 µM.
Same read-out and setting: the result for `[2H]C([2H])([2H])Oc1cc(OC(F)(F)F)ccc1Oc1ccc(C(F)(F)F)c(F)c1C(=O)Nc1ccc(C(N)=O)nc1C` [Compound 188, 5-[[2-Fluoro-6-[2-(trideuteriomethoxy)-4-(trifluoromethoxy)phenoxy]-3-(trifluoromethyl)benzoyl]amino]-6-methyl-pyridine-2-carboxamide] reads 0.16 µM; that for `[2H]C([2H])([2H])Oc1cc(OC(F)(F)F)ccc1Oc1ccc(C(F)(F)F)c(F)c1C(=O)Nc1cccc(C(N)=O)n1` [Compound 168, 6-[[2-Fluoro-6-[2-(trideuteriomethoxy)-4-(trifluoromethoxy)phenoxy]-3-(trifluoromethyl)benzoyl]amino]pyridine-2-carboxamide], 0.14 µM; that for `[2H]C([2H])([2H])Oc1c(Oc2ccc(C(F)F)c(F)c2C(=O)Nc2cc(C(N)=O)ncc2C)ccc(OC(F)(F)F)c1F` [Compound 237, 4-[[3-(Difluoromethyl)-2-fluoro-6-[3-fluoro-2-(trideuteriomethoxy)-4-(trifluoromethoxy)phenoxy]benzoyl]amino]-5-methyl-pyridine-2-carboxamide], 0.012 µM.
Consider `Cc1cnc(C(N)=O)cc1NC(=O)c1c(Oc2ccc(OC(F)(F)F)cc2)ccc(C(F)(F)F)c1F` [Compound 242, 4-[[2-fluoro-6-[4-(trifluoromethoxy)phenoxy]-3-(trifluoromethyl)benzoyl]amino]-5-methyl-pyridine-2-carboxamide], for which the IC50 came out at 0.044 µM.
As for `COc1cc(F)ccc1Oc1cc(OC(F)(F)F)ccc1C(=O)Nc1ccnc(C(N)=O)c1` [Compound 148, 4-[[2-(4-Fluoro-2-methoxy-phenoxy)-4-(trifluoromethoxy)benzoyl]amino]pyridine-2-carboxamide], the IC50 was determined as 0.85 µM.
Regarding `[2H]C([2H])([2H])Oc1cc(OC(F)(F)F)ccc1Oc1cc(C(F)(F)F)cc(C(F)(F)F)c1C(=O)Nc1ccnc(C(N)=O)c1` [Compound 175, 4-[[2-[2-(Trideuteriomethoxy)-4-(trifluoromethoxy)phenoxy]-4,6-bis(trifluoromethyl)benzoyl]amino]pyridine-2-carboxamide], the IC50 is 0.038 µM.
Turning to `[2H]C([2H])([2H])Oc1cc(OC(F)(F)F)ccc1Oc1cc(Cl)cc(Cl)c1C(=O)Nc1ccc(C(N)=O)nc1` [Compound 183, 5-[[2,4-Dichloro-6-[2-(trideuteriomethoxy)-4-(trifluoromethoxy)phenoxy]benzoyl]amino]pyridine-2-carboxamide], the IC50 was 0.099 µM.
With `COc1cc(OC(F)(F)F)ccc1Oc1ccc(Cl)c(F)c1C(=O)Nc1cc(C(N)=O)ncc1C` [Compound 189, 4-[[3-Chloro-2-fluoro-6-[2-methoxy-4-(trifluoromethoxy)phenoxy]benzoyl]amino]-5-methyl-pyridine-2-carboxamide], the IC50 came out at 0.006 µM.
The same measure, in the same setting: next, `COc1cc(OC(F)(F)F)ccc1Oc1cnc(C(F)(F)F)c(OC)c1C(=O)Nc1ccc(C(N)=O)nc1` [Compound 203, N-(6-Carbamoyl-3-pyridyl)-3-methoxy-5-[2-methoxy-4-(trifluoromethoxy)phenoxy]-2-(trifluoromethyl)pyridine-4-carboxamide]: 0.046 µM; `NC(=O)c1cc(NC(=O)c2c(Oc3ccc(F)cc3)cccc2C(F)(F)F)ccc1F` [Compound 37, N-(3-Carbamoyl-4-fluoro-phenyl)-2-(4-fluorophenoxy)-6-(trifluoromethyl)benzamide]: 0.89 µM.
Regarding `NC(=O)c1cc(NC(=O)c2c(Oc3ccc(OC(F)(F)F)cc3)ccc3c2CCC3(F)F)ccn1` [Compound 191, 4-[[1,1-Difluoro-5-[4-(trifluoromethoxy)phenoxy]indane-4-carbonyl]amino]pyridine-2-carboxamide], the IC50 is 0.12 µM.
